The text below walks through data of patent publication US20120093726A1, “Radiolabeled Fluorine Derivatives of Methionine” (priority 2009, published 2012).

The conditions of series [1]: cited from earlier work.
Series [2] deals with A431 squamous cell carcinoma xenografts. The series can be described thus: PET imaging of tracer uptake in A431 tumoured mice. The series is classed as in vivo, Balb/c Nude mice. The conditions noted are these: intravenous, PET at 90 minutes post-tracer injection. Here is the method: (§1) In vivo imaging studies were performed on a Phillips Allegro™ small animal imaging system in mice implanted with A431 squamous cell carcinoma and HT-29 colon carcinoma xenografts on the left leg of Balb/c Nude mice. Approximately 400 μCi of each of D and L ^18FPM in 100 μl saline were injected intravenously and PET imaging performed at 90 minutes post-tracer injection. A comparison with FDG (fluorodeoxyglucose) uptake was also performed.

Series [3] has as its system HT-29 colon carcinoma xenografts. The series can be described thus: PET imaging of tracer uptake in HT29 tumoured mice. As to conditions: intravenous, PET at 90 minutes post-tracer injection. The series is classed as in vivo, Balb/c Nude mice. Here is the method: as §1
Series [4] is described as follows: Radiochemical purity and stability in aqueous formulations (HPLC). The series is classed as physicochemical. Here is the method: The stability of [^18F]-L-FPHCys and [^18F]-D-FPHCys formulated in each of the following solutions: • 1) 5% EtOH/95% phosphate buffer, pH 6, 0.15 M (HLPC solvent) • 2) saline • 3) Dulbecco's phosphate buffered saline, pH 7 • 4) Phosphate buffer, pH 7. were analysed by HPLC using a Gemini 150×4.6 mm, 5 μm, eluting with 100% Phosphate Buffer, pH 11.5, 0.05 M at 1 mL/min, λ=226 nm.

Series [5] has as its system MCF-7 (breast adenocarcinoma) tumour cells. The series can be described thus: Cell uptake study, MCF-7. Format: cell-based, human. As to conditions: for uptake, rank among the cell lines: MCF-7 breast tumour cell line, 37° C., 2-240 min; for time for which uptake increased before staying at the same level: MCF-7 cell line. Here is the method: (§2) The human A375 (malignant melanoma), A431 (epidermoid carcinoma), HT29 (colorectal adenocarcinoma), MCF-7 (breast adenocarcinoma), MDA-MB-231 (breast adenocarcinoma), PC-3 (prostate adenocarcinoma) tumour cells were grown in RPMI-1640 medium supplemented with 10% fetal bovine serum (FBS) and 2 mM L-glutamine. The human H460 (large cell lung carcinoma) cell line was grown in RPMI-1640 supplemented with 10% FBS, 1 mM L-glutamine and 1 mM sodium pyruvate. The MiaPaCa2 human pancreatic carcinoma cell line was grown in Dulbecco's Modified Eagle medium supplemented with 10% FBS, 2.5% horse serum, 1 mM L-glutamine and 1 mM sodium pyruvate. The human U87MG glioblastoma cell line was cultured in Minimum Essential Medium supplemented with 10% FBS, 2 mM L-glutamine and 1 mM sodium pyruvate. Cells were maintained in 175 cm^2 flasks in a 5% CO2, 37° C. humidified incubator. Cells were passaged routinely every 7 days and the media changed twice weekly.
(§3) One day prior to the experiments, cell cultures were trypsinised with a solution of 0.05% trypsin in PBS without Ca^2+ and Mg^2+ and containing 0.02% EDTA. Cells were seeded in 24-well culture dishes in complete medium and left to attach overnight. For MCF-7 cells, 3×10^5 cells were seeded, for all other cell lines, 2.5×10^5 cells were seeded.
(§4) On the day of the study, the cells were counted and the viability assessed in triplicate for each cell line. Before the incubation with radiolabelled FPM, cells were washed once with PBS containing Ca^2+ and Mg^2+ to remove all traces of the culture medium. The radiolabelled FPM was formulated in PBS containing Ca^2+ and Mg^2+. Aliquots of 500 μL (˜10 μCi) of freshly prepared FPM were added and the cells were incubated in triplicate at 37° C. for 2, 15, 30, 60, 120, 180 and 240 min. After stopping the tracer uptake with 1 mL of ice-cold PBS, cells were solubilised with 500 μL of 0.2N NaOH and the activity was measured with a gamma counter. The results were expressed as percent of applied dose per 1×10^5 cells.

For series [6], the system named is HT29 (colorectal adenocarcinoma) tumour cells. The series can be described thus: Cell uptake study, HT29. The series is classed as cell-based, human. As to conditions: HT29 colon cell line. Here is the method: as §2, with “weekly. […]” for “weekly.”
(§5) On the day of the study, the cells were counted and the viability assessed in triplicate for each cell line. […] After stopping the tracer uptake with 1 mL of ice-cold PBS, cells were solubilised with 500 μL of 0.2N NaOH and the activity was measured with a gamma counter. The results were expressed as percent of applied dose per 1×10^5 cells.

In series [7] the test system is MiaPaCa2 human pancreatic carcinoma cell line. The series can be described thus: Cell uptake study, MiaPaCa2. The series is classed as cell-based. As to conditions: MiaPaCa2 tumour cell line. Here is the method: as §2, with “weekly. […]” for “weekly.”
as §5

Series [8] has as its system various types of tumour cells. The series can be described thus: Cell uptake study, panel of tumour cell lines. Format: cell-based, human. As to conditions: for uptake into tumour cells: particularly MCF-7, U87MG, MiaPaCa2 and A375 cell lines. Here is the method:
as §2, §3, §4

In the next series the test system is MiaPaCa2 cells. The series can be described thus: Competitive inhibition study of tracer uptake, MiaPaCa2. Format: cell-based, human. As to conditions: MeAIB 12.5 mmol/L aliquot, 30 min, 37° C. Here is the method:
as §2, with “weekly. […]” for “weekly.”
(§6) On the day of the study, the cells were counted and the viability assessed in triplicate for each cell line. […] After stopping the tracer uptake with 1 mL of ice-cold PBS, cells were solubilised with 500 μL of 0.2N NaOH and the activity was measured with a gamma counter. The results were expressed as percent of applied dose per 1×10^5 cells. The percentage of uptake in the treatment groups, relative to the control group was determined.

Another series has as its system HT29 cells. The series can be described thus: Competitive inhibition study of tracer uptake, HT29. The series is classed as cell-based, human. As to conditions: MeAIB 12.5 mmol/L aliquot, 30 min, 37° C. Here is the method: as §2, with “weekly. […]” for “weekly.”
as §6

In another series the test system is H460 cells. The series can be described thus: Competitive inhibition study of tracer uptake, H460. The conditions noted are these: MeAIB 12.5 mmol/L aliquot, 30 min, 37° C. Format: cell-based, human. Here is the method:
as §2, with “weekly. […]” for “weekly.”
as §6

For series [9], the system named is sodium-independent L type transport system in tumour cell lines. The series can be described thus: Competitive inhibition study of tracer uptake, all cell lines. The series is classed as cell-based, human. As to conditions: for tracer uptake in the presence of BCH: all cell lines, BCH 12.5 mmol/L aliquot, 30 min, 37° C.; for transport mechanism of cell uptake: from inhibition by BCH and MeAIB. Here is the method: as §2, §3
Inhibitor studies were carried out to investigate the transport mechanism involved in the uptake of FPM in tumour cells. The following amino acid transport inhibitors were used; 2-amino-bicyclo[2.2.1]-heptane-2-carboxylic acid (BCH) and N-methyl-α-aminoisobutyric acid (MeAIB) for the sodium-independent L type transport system and the A type amino acid transport system respectively.
On the day of the study, the cells were counted and the viability assessed in triplicate for each cell line. Before the incubation with radiolabelled FPM, cells were washed once with PBS containing Ca^2+ and Mg^2+ to remove all traces of the culture medium. Aliquots of 400 μL of inhibitor (12.5 mmol/L in PBS with Ca^2+ and Mg^2+) or PBS (for controls) were added to cells prior to the addition of radiolabelled FPM. Aliquots of 100 μL (about 10 μCi) of freshly prepared FPM were added and the cells were incubated in triplicate at 37° C. for 30 min. After stopping the tracer uptake with 1 mL of ice-cold PBS, cells were solubilised with 500 μL of 0.2N NaOH and the activity was measured with a gamma counter. The results were expressed as percent of applied dose per 1×10^5 cells. The percentage of uptake in the treatment groups, relative to the control group was determined.

As to `N[C@@H](CCSCC[18F])C(=O)O` [[^18F]FEHCys, S-(2-[^18F]fluoroethyl)-L-homocysteine], the “stability in aqueous systems” value in series [1] was “considerable instability”.

Take `OC[C@H]1OC(O)[C@H]([18F])[C@@H](O)[C@@H]1O` (stereo partly drawn) [FDG, [^18F]Fluoro-2-deoxy-D-glucose, reference compound]: in series [2], the “percent injected dose (% ID) in tumour” value was 5.84% and the “tumour to background ratio” value came to 3.33. Besides, in [3], the “percent injected dose (% ID) in tumour” value is 2.37% and the “tumour to background ratio” value is given as 2.11.

`N[C@@H](CCSCCC[18F])C(=O)O` [[^18F]FPHCys, S-(3-[^18F]fluoropropyl)homocysteine]: in series [4] (aqueous environment), the “stability in an aqueous environment compared with the S-ethyl homologue” value is “substantially more stable”.

`N[C@@H](CCSCCC[18F])C(=O)O` [[^18F]-L-FPHCys, S-(3-[^18F]fluoropropyl)-L-homocysteine]: the “percent injected dose (% ID) in tumour” value in [2] is 2.12%; in [3] it was 2.13%. Also, the “tumour to background ratio” value in [2] is recorded as 5.39; in [3], 2.45. Further, the “uptake, rank among the cell lines” value was “highest” in series [5] and “lowest uptake” in series [6]. Moreover, the “time for which uptake increased before staying at the same level” value in series [5] came out at 120 min. In addition, in series [7], the “time of peak uptake” value worked out at 30. The “uptake compared with the other enantiomer” value in series [8] (all cell lines) was “higher”. The “uptake into tumour cells” value in series [8] is reported as “high uptake”. The figures for the “tracer uptake in the presence of MeAIB, % of control uptake” value in the series with MiaPaCa2 cells, in the series with HT29 cells and with H460 cells were 79%, 84% and 70%, respectively. For the same compound, the “tracer uptake in the presence of BCH” value in series [9] was “significantly inhibited”. For the same compound, the “transport mechanism of cell uptake” value in series [9] is listed as “predominantly taken up by cells via the sodium-independent L type transport system”.

Turning to “S-(3-[^18F]fluoropropyl)-D-homocysteine [[^18F]-D-FPHCys]”, the “percent injected dose (% ID) in tumour” value is listed as 1.96% in series [2] and 0.75% in series [3]. For the same compound, the “tumour to background ratio” value was found to be 7.86 in series [2] and 2.10 in [3]. For the same compound, the “% ROI of product peak, F18 chromatogram (radiochemical purity)” value is given as 99.74% in series [4] (5% EtOH/95% phosphate buffer, pH 6, 0.15 M (HPLC solvent), t=0); 99.06% in series [4] (5% EtOH/95% phosphate buffer, pH 6, 0.15 M (HPLC solvent), t=4 h); 98.97% in series [4] (Dulbecco's phosphate buffered saline, pH 7, t=0); 96.20% in series [4] (Dulbecco's phosphate buffered saline, pH 7, t=4 h); 98.44% in series [4] (PBS (phosphate buffer, pH 7), t=0); 96.51% in series [4] (PBS (phosphate buffer, pH 7), t=4 h). Besides, the “% ROI of product peak, F18 chromatogram (radiochemical purity)” value in series [4] (saline, t=0) stood at 99.30%; in series [4] (saline, t=4 h), 95.23%. The results for the “uptake, rank among the cell lines” value in [5] and in series [6] were “highest” and “lowest uptake”, respectively. The “time for which uptake increased before staying at the same level” value in series [5] amounted to 120 min. The same compound displayed a time of peak uptake in series [7] of 30 min. For the same compound, the “uptake into tumour cells” value in series [8] was “high uptake”. Also, the “tracer uptake in the presence of MeAIB, % of control uptake” value in the series with H460 cells is 76%. The “tracer uptake in the presence of BCH” value in [9] is given as “significantly inhibited”. In addition, in [9], the “transport mechanism of cell uptake” value was “predominantly taken up by cells via the sodium-independent L type transport system”.
